Data taken from patent publication US20230390287A1, “MODULATORS OF PD-L1/PD-1 INTERACTION AND USES THEREOF” (Ramot at Tel-Aviv University Ltd., priority 2021, published 2023).

What was measured:
[1] = tested on: PD-1/PD-L1 interaction on MDA-MB-231 cells; assay: Cell-based PD-1/PD-L1 inhibition (accessible PD-L1 by flow cytometry), MDA-MB-231; parameters: species or system human; conditions: 10 μM, 72 hours
Procedure: (§1) PD-1/PD-L1 Inhibition on Human Melanoma and Breast Cancer Cell Lines:
(§2) Cells (0.1×10^6 cells) were tested for PD-1/PD-L1 inhibition by co-incubation of hit compounds, DMSO (background), BMS-202 (Selleckchem) and anti-human PD-L1 (BioxCell, Clone 29E.2A3) (positive controls) for 72 hours in 2 ml DMEM medium. Non-confluent cell cultures were scraped into single-cell suspension, washed with PBS, and counted. Cells were subsequently stained with PD-1 fluorescent proxy for 30 minutes at 4° C., washed twice and resuspended in FACS buffer. Cells were analyzed using BD LSRFortessa (BD Biosciences) and data analyzed with FlowJo software for Mac (FlowJo, LLC 2013-2016). Mean fluorescence intensity (MFI) was derived from each sample. The PD-1/PD-L1 inhibition in cells was measured by a decrease in MFI relative to background.
The selected cell lines were incubated with the selected compounds to assess compound-binding affinities, and consequently PD-1/PD-L1 inhibition. The levels of remaining accessible PD-L1 in these cells were evaluated by FACS analysis using a fluorescence PD-1 proxy. To understand compound activity, different incubation times (24, 48 and 72 hours) were evaluated on MDA-MB-231 breast cancer cell line.
(§3) The remaining accessible PD-L1 was determined by flow cytometry.

[2] = tested on: MDA-MB-231 cells; assay: MTT cell viability, MDA-MB-231; type: cell-based, human; conditions: 1, 10, 100 μM, 48 hours
Procedure: (§4) For the MTT assays, cells were seeded in 96-multi-well plate at a concentration of 7,000 cells per well. Six hours after seeding, cells were treated with the compounds and DMSO as a negative control. Forty-eight hours after the addition of the compounds, 20 μl of MTT (Sigma-Aldrich) dissolved in 5 mg/ml of PBS were added to each well and incubated for 2 hours at 37° C. Solutions were removed, and 100 μl of DMSO were added to each well and gently mixed on a shaker. The absorbance of control and treated wells was read against a DMSO blank at 570 nm using an Epoch micro-plate reader (Biotek). Each hit compound was tested in three replicates, in three independent experiments.
(§5) Human breast cancer MDA-MB-231 and melanoma A375 cells were exposed to increasing concentrations (1, 10, and 100 μM) of selected compounds for 48 hours. Cell viability was normalized to untreated cells. Three different concentrations 100 μM (blue), 10 μM (green) and 1 μM (gray) were tested. Data are presented as mean±SD, N=3, n=3 and N=1, n=3, from three or one independent experiment(s) performed in triplicate.

[3] = tested on: PD-1/PD-L1 interaction on A375 cells; assay: Cell-based PD-1/PD-L1 inhibition (accessible PD-L1 by flow cytometry), A375; parameters: species or system human; conditions: A375 stimulated with IFN-γ; 10 μM; 72 hours
Procedure: as §1, §2, §3

[4] = tested on: A375 cells; assay: MTT cell viability, A375; type: cell-based, human; conditions: 1, 10, 100 μM, 48 hours
Procedure: as §4, §5

[5] = target: PD-1/PD-L1 interaction (Homo sapiens (Human), UniProt Q9NZQ7); assay: HTRF PD-1/PD-L1 binding assay; type: biochemical; parameters: key to HTF assay (100 μM): +: positive compounds using 100 μM on HTRF; conditions: for HTF assay (100 μM): compounds at 100 μM, hits defined as at least 50% inhibition of PD-1/PD-L1 interaction; for dose-response effect in HTRF: 8 doses starting from 100 μM
[6] = target: recombinant human PD-L1 (Homo sapiens (Human), UniProt Q9NZQ7); assay: Differential scanning fluorimetry (DSF) thermal denaturation; type: binding; conditions: for thermal shift / stabilization of PD-L1: 100 μM compound, 1% DMSO
Procedure: DSF was performed in a C1000 Touch thermal cycler equipped with a CFX96 optical reaction module (Bio Rad). For all fluorescence measurements, samples contained recombinant human PD-L1 (ThermoFisher) at 500 μg/ml in phosphate buffered saline (PBS), pH 7.4, 5% (m/v) Mannitol, 5% (m/v) Trehalose, 0.02% (v/v) Tween® 80, 2.5-fold SYPRO® Orange, 1% (v/v) DMSO (Sigma-Aldrich) and 100 μM of each compound. The PCR plate was sealed with Optical-Quality Sealing Tape (Bio-Rad) and centrifuged at 300 g for 5 minutes. The DSF assay was carried out by increasing the temperature from 20 to 90° C., with a 1 second hold time every 0.2° C. and fluorescence acquisition using the FRET channel, after an initial incubation step of 10 minutes at 20° C. Control experiments in the absence of DMSO and/or compounds were routinely performed in each microplate.
Data were processed using CFX Manager Software V3.0 (Bio-Rad) and the GraphPad Prism 7. Temperature scan curves were fitted to a dose-response sigmoid function (Boltzmann equation) and the melting temperature (Tm values) were obtained from the midpoint of the transition. Normalization of the RFU was also performed to prevent distraction due to different maximum and minimum values upon compounds treatment. The RFU values from different data sets were converted to a common scale 0-1, where 0 represents the fluorescence of the native protein and 1 the fluorescence of the denatured protein. To monitor the binding properties towards each compound, DSF assays were run in the absence and presence of 100 μM compounds using 1% (v/v) DMSO as vehicle control.
To test this hypothesis, the melting temperature (Tm) of the PD-L1 was determined in thermal denaturation assays by differential scanning fluorimetry (DSF) and checked for a shift in the proteins' Tm (ΔTm) in the presence of the PD-L1 inhibitor candidates. The extent of temperature shift is proportional to the compounds' stabilizing effect and thereby used to infer inhibitors' affinity.

[7] = Compound stability (no method given); type: physicochemical
[8] = HTRF dose-response starting from 100 μM
[9] = Table A, HTRF dose-response, NA = Not applicable (No dose-response effect)
[10] = Table B, HTRF dose-response, NA = no dose-response effect

recombinant human PD-L1, sequence (Q9NZQ7 19-238): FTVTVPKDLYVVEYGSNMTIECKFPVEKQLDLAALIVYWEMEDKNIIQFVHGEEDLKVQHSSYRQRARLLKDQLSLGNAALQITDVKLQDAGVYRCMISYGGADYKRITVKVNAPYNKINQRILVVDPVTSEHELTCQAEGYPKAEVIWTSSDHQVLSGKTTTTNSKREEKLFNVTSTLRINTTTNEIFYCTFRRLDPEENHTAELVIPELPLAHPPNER
PD-1/PD-L1 interaction, sequence (Q9NZQ7 19-238): as above

IC50 [5, 8] [nM] | IC50 [5, 9] [nM] | IC50 [5, 10] [nM] | HTF assay (100 μM) [5] | interference with the fluorescence-dye in DSF [6] | thermal shift / stabilization of PD-L1 [6] | stability of compound [7] | dose-response effect in HTRF [5] | SMILES | impact on PD-L1 accessibility / PD-1/PD-L1 interaction [1] | toxicity (cell viability, MTT) [2] | impact on PD-L1 accessibility / PD-1/PD-L1 interaction [3] | toxicity (cell viability, MTT) [4]
 |  |  |  |  |  |  |  | COc1nc(OCc2cccc(-c3ccccc3)c2C)ccc1CNCCNC(C)=O [BMS202, reference compound] | did not exhibit a significant impact | higher toxicity at the highest concentration | did not exhibit a significant impact | higher toxicity at the highest concentration
186 | 186 | 186 | + | revealed to interfere |  |  |  | CCN(CC)CCNc1nc(NCCN(CC)CC)c2nc(-c3ccccc3)c(-c3ccccc3)nc2n1 [Compound 1] |  | toxicity higher or similar to that obtained for BMS202 |  | toxicity higher or similar to that obtained for BMS202
2440 | 2440 | 2440 | + |  | stabilization of PD-L1 |  |  | COc1ccc(-c2nc(N)nc(-c3cc(C)ccc3OC)c2Cl)cc1 [Compound 5] |  |  |  | 
190 | 190 | 190 | + |  |  | stability issues |  | N#Cc1nc(CC(=O)/C=C/c2ccccc2)c(CC(=O)/C=C/c2ccccc2)nc1C#N [Compound 18] |  |  |  | 
4000 | 4000 | 4000 | + |  |  | stability issues |  | CN1CCN(S(=O)(=O)c2ccc(-c3ccc4c(Nc5ccc6nn[nH]c6c5)ccnc4c3)cc2)CC1 [Compound 29] |  |  |  | 
 |  |  | + |  |  |  | no dose-response was observed | CC(C)(C)OC(=O)N1CCN(c2cc(-c3ccc(Oc4ccccc4)cc3)n[nH]2)CC1 [Compound 30] |  |  |  | 
 |  |  | + |  |  |  | no dose-response was observed | CC1CCCCN1C(=O)NCCc1coc(-c2ccc(F)cc2)n1 (stereo not drawn) [Compound 32] |  |  |  | 
 |  |  | + |  |  |  | no dose-response was observed | CN(C)CCNC(=O)N1CCCN(c2ncnc3cc(-c4ccccc4)sc23)CC1 [Compound 35] |  |  |  | 
 |  |  | + |  |  |  | no dose-response was observed | O=C(NC1CC1)c1ccc(N2CCC(Cc3ccccc3)CC2)nc1 [Compound 38] |  |  |  | 
57 | 57 | 57 | + |  | stabilization of PD-L1 |  |  | CCCCCCCCSc1nc2ccc(/N=C\c3ccccc3O)cc2s1 [Compound 42] |  |  |  | 
596 | 596 | 596 | + |  |  |  |  | COc1ccc(-c2nc(N)nc(-c3cc(C)ccc3O)c2Cl)cc1 [Compound 45] |  |  |  | 
380 | 380 | 380 | + | revealed to interfere |  |  |  | CC1(C)OCC(C2OC3OC(C)(C)OC3C2NNC(=O)c2cc3cc(OCc4ccccc4)ccc3[nH]2)O1 (stereo not drawn) [Compound 71] |  |  |  | 
149 | 149 | 149 | + | revealed to interfere |  |  |  | O=C(c1ccc(-c2ccccc2)cc1)c1nc(-c2ccc(-c3ccccc3)cc2)c[nH]1 [Compound 73] |  | toxicity higher or similar to that obtained for BMS202 |  | toxicity higher or similar to that obtained for BMS202
1550 | 1550 | 1550 | + |  | stabilization of PD-L1 |  |  | Cc1cc(C)nc(NS(=O)(=O)c2ccc(NC(=O)c3cccnc3Nc3cccc(Cl)c3)cc2)n1 [Compound 75] |  | toxicity higher or similar to that obtained for BMS202 |  | toxicity higher or similar to that obtained for BMS202
1090 | 1090 | 1090 | + |  | stabilization of PD-L1 |  |  | Cc1nc(C)c(C(=O)NNC(=O)Cc2ccccc2)cc1C(=O)NNC(=O)Cc1ccccc1 [Compound 84] |  |  |  | 

SMILES | IC50 [5, 8] [nM] | IC50 [5, 9] [nM] | IC50 [5, 10] [nM] | HTF assay (100 μM) [5] | interference with the fluorescence-dye in DSF [6] | thermal shift / stabilization of PD-L1 [6] | stability of compound [7] | dose-response effect in HTRF [5] | impact on PD-L1 accessibility / PD-1/PD-L1 interaction [1] | toxicity (cell viability, MTT) [2] | impact on PD-L1 accessibility / PD-1/PD-L1 interaction [3] | toxicity (cell viability, MTT) [4]
Cc1cc(SCC(=O)c2ccc3c(ccc4ccccc43)c2)cc(C)[o+]1.[Br-] [Compound 47] | 149 | 149 | 149 | + |  | stabilization of PD-L1 |  |  |  |  |  | 
